Measurements from PubChem BioAssay (NCI).
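Briefly, cells in 96-well plates were exposed to five compound concentrations for 48 h, and endpoints were estimated by linear interpolation. TGI: total growth inhibition.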

Assays:
Test in all cases: DTP human tumour cell line panel, 48 h
NCI-H226 lung = test system: NCI-H226 lung
SNB-75 CNS = test system: SNB-75 CNS
A549 NSCLC = test system: A549 NSCLC
M14 melanoma = test system: M14 melanoma
RXF-631 renal = test system: RXF-631 renal
HL-60(TB) leukemia = test system: HL-60(TB) leukemia
KM20L2 colon = test system: KM20L2 colon
CCRF-CEM leukemia = test system: CCRF-CEM leukemia
CAKI-1 renal = test system: CAKI-1 renal
U251 CNS = test system: U251 CNS
NCI-H460 lung = test system: NCI-H460 lung
ACHN renal = test system: ACHN renal
NCI-H23 lung = test system: NCI-H23 lung
786-0 renal = test system: 786-0 renal
HCT-116 colon = test system: HCT-116 colon
HOP-92 NSCLC = test system: HOP-92 NSCLC
SN12C renal = test system: SN12C renal
SW-620 colon = test system: SW-620 colon
SNB-19 CNS = test system: SNB-19 CNS
UACC-257 melanoma = test system: UACC-257 melanoma
KM12 colon = test system: KM12 colon
COLO 205 colon = test system: COLO 205 colon
IGROV1 ovarian = test system: IGROV1 ovarian
UACC-62 melanoma = test system: UACC-62 melanoma
DLD-1 colon = test system: DLD-1 colon
HCT-15 colon = test system: HCT-15 colon
SK-MEL-2 melanoma = test system: SK-MEL-2 melanoma
DMS 273 small cell lung = test system: DMS 273 small cell lung
MOLT-4 leukemia = test system: MOLT-4 leukemia
OVCAR-5 ovarian = test system: OVCAR-5 ovarian
HT29 colon = test system: HT29 colon
LXFL 529 NSCLC = test system: LXFL 529 NSCLC
LOX IMVI melanoma = test system: LOX IMVI melanoma
RPMI-8226 leukemia = test system: RPMI-8226 leukemia
HCC-2998 colon = test system: HCC-2998 colon
SK-MEL-5 melanoma = test system: SK-MEL-5 melanoma
DMS 114 small cell lung = test system: DMS 114 small cell lung
HOP-18 NSCLC = test system: HOP-18 NSCLC
SF-295 CNS = test system: SF-295 CNS
OVCAR-4 ovarian = test system: OVCAR-4 ovarian
TK-10 renal = test system: TK-10 renal
OVCAR-3 ovarian = test system: OVCAR-3 ovarian
HOP-62 NSCLC = test system: HOP-62 NSCLC
SNB-78 CNS = test system: SNB-78 CNS
EKVX NSCLC = test system: EKVX NSCLC
A498 renal = test system: A498 renal
OVCAR-8 ovarian = test system: OVCAR-8 ovarian
MALME-3M melanoma = test system: MALME-3M melanoma
K-562 leukemia = test system: K-562 leukemia
XF 498 CNS = test system: XF 498 CNS
UO-31 renal = test system: UO-31 renal
SF-539 CNS = test system: SF-539 CNS
SK-OV-3 ovarian = test system: SK-OV-3 ovarian

Measured: TGI

O=C1c2cccc3c(Cl)ccc(c23)C(=O)N1CCCN1CCN(CCCN2C(=O)c3cccc4c(Cl)ccc(c34)C2=O)CC1
> 100 µM: all assays above
